# Measured values reported in EP1614683B1, “Indazole compounds and pharmaceutical compositions for inhibiting protein kinases, and methods for their use” (priority 1999, dated 2001).
# Read-outs that look alike come from different tables or passages of the source.
# [1] = mouse, in vivo, ip, 25 mg/kg, pH 2.3
# [2] = mouse, in vivo, po, 50 mg/kg, 7 h, pH 2.3
# [3] = mouse, in vivo, po, 50 mg/kg, pH 2.3
# [4] = PO, 25 mg/kg, vehicle PEG400:H2O pH 2.3 30:70
# [5] = mouse, in vivo, po, 25 mg/kg, pH 2.3
# [6] = mouse, in vivo, po, 25 mg/kg, 7 h, pH 2.3
# [7] = mouse, in vivo, po, 10 mg/kg, pH 2.3
# [8] = mouse, in vivo, ip, 25 mg/kg, 7 h, pH 2.3
SMILES,AUCleast [1],T1/2 [1],AUCleast [3],T1/2 [3],AUCleast [5],T1/2 [5],also measured
O=C(Nc1cccc(C(=O)c2ccc3c(/C=C/c4ccccn4)n[nH]c3c2)c1)c1ccncc1 [41 (b)],> 5868 ng·h/mL,4.7 h,759 ng·h/mL,1.1 h,–,–,Cmin (7 hr conc.) [2]: 6 ng/mL
O=C(Nc1cccc(C(=O)c2ccc3c(/C=N/n4cccc4)n[nH]c3c2)c1)c1ccccc1 [45 (b)],11361 ng·h/mL,2.0 h,1636 ng·h/mL,3.0 h,–,–,–
CC(C)COC(=O)Nc1cccc(C(=O)c2ccc3c(/C=C/c4ccccn4)n[nH]c3c2)c1 [41 (y)],–,–,–,–,–,–,AUCleast [4]: Blq; Cmax [4]: Blq; Cmin (7 hr conc.) [4]: blq
O=C(NC1CCC1)c1ccccc1Sc1ccc2c(/C=C/c3ccccn3)n[nH]c2c1 [35 (c)],9408 ng·h/mL,3.2 h,4744 ng·h/mL,4.9 h,–,–,–
CC(C)ONC(=O)c1ccccc1Sc1ccc2c(/C=C/c3ccccn3)n[nH]c2c1 [35 (k)],2640 ng·h/mL,1.4 h,5529 ng·h/mL,1.4 h,–,–,–
O=C(NCc1cccc(F)c1)c1ccccc1Sc1ccc2c(/C=C/c3ccccn3)n[nH]c2c1 [35 (ff)],> 6301 ng·h/mL,–,–,–,Blq,–,Cmin (7 hr conc.) [5]: blq
Cc1cc(C(=O)Nc2cccc(C(=O)c3ccc4c(/C=C/c5ccccn5)n[nH]c4c3)c2)on1 [41 (m)],1864 ng·h/mL,2.3 h,9 ng·h/mL,–,–,–,–
CC(C)ONC(=O)c1cccc(F)c1Sc1ccc2c(/C=C/c3ccccn3)n[nH]c2c1 [37 (c)],–,–,–,–,2419 ng·h/mL,1.2 h,Cmin (7 hr conc.) [6]: 9 ng/mL
C=CCONC(=O)c1ccccc1Sc1ccc2c(/C=C/c3ccccn3)n[nH]c2c1 [35 (j)],9531 ng·h/mL,1.3 h,1328 ng·h/mL,4.5 h,–,–,Cmin (7 hr conc.) [2]: 5 ng/mL
CC(C)NC(=O)c1ccccc1Sc1ccc2c(/C=C/c3ccccn3)n[nH]c2c1 [35 (b)],2840 ng·h/mL,0.8 h,4048 ng·h/mL,0.8 h,–,–,–
Cc1cc(C(=O)Nc2cc(Nc3ccc4c(/C=C/c5ccccn5)n[nH]c4c3)ccc2F)n(C)n1 [49 (a)],–,–,–,–,712 ng·h/mL,–,–
Cc1cc(C(=O)Nc2cc(Nc3ccc4c(/C=C/c5ccccn5)n[nH]c4c3)c(F)cc2C)n(C)n1 [48 (b)],–,–,–,–,2191 ng·h/mL,4 h,–
CCNC(=O)c1ccccc1Sc1ccc2c(/C=C/c3ccccn3)n[nH]c2c1 [35 (x)],951 ng·h/mL,3.2 h,3516 ng·h/mL,0.9 h,–,–,–
COc1cccc(CNC(=O)c2ccccc2Sc2ccc3c(/C=C/c4ccccn4)n[nH]c3c2)c1 [35 (aa)],–,–,–,–,4036 ng·h/mL,2.1 h,–
Cc1cccc(C(=O)Nc2cccc(Oc3ccc4c(/C=C/c5ccccc5)n[nH]c4c3)c2)c1 [5 (b)],–,–,–,–,–,–,AUCleast [7]: 61 ng·h/mL; T1/2 [7]: 3.1 h
CCn1nc(C)cc1C(=O)Nc1cc(Nc2ccc3c(/C=C/c4ccccn4)n[nH]c3c2)c(F)cc1C [48 (a)],27000 ng·h/mL,–,–,–,26636 ng·h/mL,–,–
CCOCCNC(=O)c1ccccc1Sc1ccc2c(/C=C/c3ccccn3)n[nH]c2c1 [35 (z)],837 ng·h/mL,1.8 h,1001 ng·h/mL,1.6 h,–,–,–
CONC(=O)c1ccccc1Sc1ccc2c(/C=C/c3ccccn3)n[nH]c2c1 [35 (r)],–,–,–,–,4261 ng·h/mL,1.3 h,–
Cc1cnccc1C(=O)Nc1cccc(C(=O)c2ccc3c(/C=C/c4ccccn4)n[nH]c3c2)c1 [41 (j)],–,–,–,–,1476 ng·h/mL,1.3 h,–
O=C(NCC(F)(F)F)c1ccccc1Sc1ccc2c(/C=C/c3ccccn3)n[nH]c2c1 [33 (f)],1887 ng·h/mL,2.4 h,1436 ng·h/mL,0.7 h,–,–,Cmin (7 hr conc.) [8]: 6 ng/mL; Cmin (7 hr conc.) [2]: 3 ng/mL
CCCONC(=O)c1ccccc1Sc1ccc2c(/C=C/c3ccccn3)n[nH]c2c1 [35 (t)],–,–,–,–,3199 ng·h/mL,1.1 h,–
Cc1cc(C(=O)Nc2cccc(C(=O)c3ccc4c(/C=C/c5ccccn5)n[nH]c4c3)c2)n[nH]1 [41 (g)],1925 ng·h/mL,0.3 h,508 ng·h/mL,0.7 h,–,–,"Cmin (7 hr conc.) (mouse, in vivo, ip, 25 mg/kg, 420 min, pH 2.3): 0 ng/mL; Cmin (7 hr conc.) [2]: 1 ng/mL"

SMILES,AUCleast [1],T1/2 [1],AUCleast [3],T1/2 [3],AUCleast [5],T1/2 [5],also measured
O=C(NCCc1cccs1)c1ccccc1Sc1ccc2c(/C=C/c3ccccn3)n[nH]c2c1 [35 (hh)],–,–,–,–,292 ng·h/mL,1.7 h,Cmin (7 hr conc.) [6]: 5 ng/mL
Cc1cc(C(=O)Nc2cccc(C(=O)c3ccc4c(/C=C/c5ccccn5)n[nH]c4c3)c2)n(C)n1.Cl [59 (b)],–,–,–,–,–,–,"AUCleast (mouse, in vivo, po, 50 mg/kg): 276467 ng·h/mL"
Cn1cccc1C(=O)NNC(=O)c1ccccc1Sc1ccc2c(/C=C/c3ccccn3)n[nH]c2c1 [35 (e)],2409 ng·h/mL,1.8 h,1503 ng·h/mL,0.9 h,–,–,Cmin (7 hr conc.) [2]: 6 ng/mL
C#CCNC(=O)c1ccccc1Nc1ccc2c(/C=C/c3ccccn3)n[nH]c2c1 [39 (b)],–,–,–,–,> 30972 ng·h/mL,11.8 h,–
O=C(NCc1ccncc1)c1ccccc1Sc1ccc2c(/C=C/c3ccccn3)n[nH]c2c1 [35 (p)],–,–,–,–,1435 ng·h/mL,1.3 h,Cmin (7 hr conc.) [6]: 5 ng/mL
O=C(NCC1CC1)c1ccccc1Sc1ccc2c(/C=C/c3ccccn3)n[nH]c2c1 [35 (v)],4865 ng·h/mL,0.9 h,>2946 ng·h/mL,1.0 h,–,–,–
O=C(Nc1nccs1)c1ccccc1Sc1ccc2c(/C=C/c3ccccn3)n[nH]c2c1 [35 (y)],159 ng·h/mL,1.2 h,58 ng·h/mL,1.2 h,–,–,Cmin (7 hr conc.) [8]: 2 ng/mL; Cmin (7 hr conc.) [2]: 1 ng/mL
O=C(Nc1cccc(C(=O)c2ccc3c(-c4nc5ccccc5[nH]4)n[nH]c3c2)c1)c1ccccc1 [42 (b)],3207 ng·h/mL,3.0 h,4747 ng·h/mL,3.0 h,–,–,–
O=C(Nc1cccc(Cl)c1)c1ccccc1Sc1ccc2c(/C=C/c3ccccn3)n[nH]c2c1 [33 (d)],5080 ng·h/mL,1.6 h,4744 ng·h/mL,0.9 h,–,–,Cmin (7 hr conc.) [2]: 8 ng/mL
Cc1ccc(CNC(=O)c2ccccc2Sc2ccc3c(/C=C/c4ccccn4)n[nH]c3c2)o1 [35 (h)],59 ng·h/mL,1.5 h,26 ng·h/mL,–,–,–,Cmin (7 hr conc.) [8]: 1 ng/mL; Cmin (7 hr conc.) [2]: 2 ng/mL
COc1ccc(CNC(=O)c2ccccc2Sc2ccc3c(/C=C/c4ccccn4)n[nH]c3c2)cc1 [35 (g)],–,–,–,–,231 ng·h/mL,16.1 h,–
C#CCNC(=O)c1ccccc1Sc1ccc2c(/C=C/c3ccccn3)n[nH]c2c1 [35 (cc)],2223 ng·h/mL,1.4 h,1718 ng·h/mL,0.9 h,–,–,Cmin (7 hr conc.) [8]: 6 ng/mL; Cmin (7 hr conc.) [2]: 5 ng/mL
CNC(=O)c1ccccc1Nc1ccc2c(/C=C/c3ccccn3)n[nH]c2c1 [39 (a)],–,–,–,–,> 14848 ng·h/mL,1.4 h,–
CCn1nc(C)cc1C(=O)Nc1cc(Nc2ccc3c(/C=C/c4ccccn4)n[nH]c3c2)c(F)cc1C.Cl [59 (c)],–,–,–,–,–,–,"AUCleast (mouse, in vivo, po, 25 mg/kg): 327135 ng·h/mL"
CCn1nc(C)cc1C(=O)Nc1cccc(Oc2ccc3c(/C=C/c4ccccn4)n[nH]c3c2)c1.Cl [59 (e)],–,–,–,–,–,–,"AUCleast (mouse, in vivo, po, 25 mg/kg): 12510 ng·h/mL; T1/2 (mouse, in vivo, po, 25 mg/kg): 21 h"
C=CCn1nc(C)cc1C(=O)Nc1cc(C(=O)c2ccc3c(/C=C/c4ccccn4)n[nH]c3c2)ccc1C [41 (ff)],–,–,–,–,9176 ng·h/mL,2.0 h,–
CCn1nc(C)cc1C(=O)Nc1cccc(C(=O)c2ccc3c(/C=C/c4ccccn4)n[nH]c3c2)c1.Cl [59 (a)],–,–,–,–,–,–,"AUCleast (mouse, in vivo, po, 8 mg/kg): 7707 ng·h/mL; T1/2 (mouse, in vivo, po, 8 mg/kg): 1.5 h; AUCleast (mouse, in vivo, po, 40 mg/kg): 57240 ng·h/mL; T1/2 (mouse, in vivo, po, 40 mg/kg): 2.4 h; AUCleast (mouse, in vivo, po, 200 mg/kg): 156153 ng·h/mL; T1/2 (mouse, in vivo, po, 200 mg/kg): 9.4 h"
CCc1cc(C(=O)Nc2cccc(C(=O)c3ccc4c(/C=C/c5ccccn5)n[nH]c4c3)c2)n(C)n1 [41 (v)],–,–,–,–,10949 ng·h/mL,4.4 h,–
CCONC(=O)c1ccccc1Sc1ccc2c(/C=C/c3ccccn3)n[nH]c2c1 [35 (dd)],> 23046 ng·h/mL,4.1 h,–,–,> 6521 ng·h/mL,1.4 h,"AUCleast (mouse, in vivo, po, 25 mg/kg): 1360 ng·h/mL; T1/2 (mouse, in vivo, po, 25 mg/kg): 2.0 h"
Cc1cc(C(=O)Nc2cc(Nc3ccc4c(/C=C/c5ccccn5)n[nH]c4c3)ccc2F)n(C)n1.Cl [59 (d)],–,–,–,–,–,–,"AUCleast (mouse, in vivo, po, 8 mg/kg): > 24696 ng·h/mL; AUCleast (mouse, in vivo, po, 40 mg/kg): > 32297 ng·h/mL; AUCleast (mouse, in vivo, po, 200 mg/kg): > 123206 ng·h/mL"
Cc1cc(C(=O)Nc2cc(C(=O)c3ccc4c(/C=C/c5ccccn5)n[nH]c4c3)ccc2C)n(C(C)C)n1 [41 (kk)],–,–,–,–,11612 ng·h/mL,2.0 h,–
C=C(C)CNC(=O)c1ccccc1Sc1ccc2c(/C=C/c3ccccn3)n[nH]c2c1 [35 (ee)],546 ng·h/mL,1.5 h,–,–,157 ng·h/mL,14.6 h,Cmin (7 hr conc.) [8]: 2 ng/mL; Cmin (7 hr conc.) [6]: 9 ng/mL
